From ChEMBL document CHEMBL1201862, “PubChem BioAssay data set” (2004)
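A five-concentration, 48-hour dose response in 96-well plates underlies each endpoint, interpolated linearly between surrounding concentrations. GI50 is the concentration that inhibits growth by half.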 Active and inactive are the calls of the source. Rule as the data show it: active = GI50 up to about 1.1 µM and inactive = higher.

Columns and labels:
Assay in all cases: inhibition of tumour cell growth, NCI panel, 48 h
CCRF-CEM = tested on: CCRF-CEM
SF-268 = tested on: SF-268
SK-MEL-5 = tested on: SK-MEL-5
UO-31 = tested on: UO-31
RPMI-8226 = tested on: RPMI-8226
SNB-19 = tested on: SNB-19
EKVX = tested on: EKVX
NCI/ADR-RES = tested on: NCI/ADR-RES
NCI-H460 = tested on: NCI-H460
HOP-62 = tested on: HOP-62
MOLT-4 = tested on: MOLT-4
SW-620 = tested on: SW-620
SK-MEL-28 = tested on: SK-MEL-28
SF-295 = tested on: SF-295
A549 = tested on: A549
HCT-116 = tested on: HCT-116
IGROV-1 = tested on: IGROV-1
OVCAR-8 = tested on: OVCAR-8
COLO 205 = tested on: COLO 205
Malme-3M = tested on: Malme-3M

Brc1ccc2c(c1)[C@H]1CCc3c([nH]c4ccccc34)[C@H]1N2
GI50 (CCRF-CEM): 3.91 µM (inactive) | GI50 (SF-268): 15.1 µM (inactive) | GI50 (SK-MEL-5): 3.13 µM (inactive) | GI50 (UO-31): 11.4 µM (inactive) | GI50 (RPMI-8226): 4.39 µM (inactive) | GI50 (SNB-19): 13.7 µM (inactive) | GI50 (EKVX): 10.8 µM (inactive) | GI50 (NCI/ADR-RES): 14.2 µM (inactive) | GI50 (NCI-H460): 12.4 µM (inactive) | GI50 (HOP-62): 10.9 µM (inactive) | GI50 (MOLT-4): 2.2 µM (inactive) | GI50 (SW-620): 14.4 µM (inactive) | GI50 (SK-MEL-28): 14 µM (inactive) | GI50 (SF-295): 11.6 µM (inactive) | GI50 (A549): 14.8 µM (inactive) | GI50 (HCT-116): 8.49 µM (inactive) | GI50 (IGROV-1): 0.369 µM (active) | GI50 (OVCAR-8): 13.3 µM (inactive) | GI50 (COLO 205): 11.5 µM (inactive) | GI50 (Malme-3M): 10.7 µM (inactive)

COC(=O)/C=C\n1ncc(=O)[nH]c1=O
GI50 (SF-268): > 100 µM (inactive) | GI50 (SK-MEL-5): > 100 µM (inactive) | GI50 (UO-31): > 100 µM (inactive) | GI50 (RPMI-8226): > 100 µM (inactive) | GI50 (SNB-19): > 100 µM (inactive) | GI50 (EKVX): > 100 µM (inactive) | GI50 (NCI/ADR-RES): > 100 µM (inactive) | GI50 (NCI-H460): > 100 µM (inactive) | GI50 (HOP-62): > 100 µM (inactive) | GI50 (MOLT-4): > 100 µM (inactive) | GI50 (SW-620): > 100 µM (inactive) | GI50 (SK-MEL-28): > 100 µM (inactive) | GI50 (A549): > 100 µM (inactive) | GI50 (IGROV-1): > 100 µM (inactive) | GI50 (OVCAR-8): > 100 µM (inactive) | GI50 (COLO 205): > 100 µM (inactive) | GI50 (Malme-3M): > 100 µM (inactive)

CC(=O)Nc1ccc(Sc2nnc(NC(C)=O)s2)cc1
GI50 (CCRF-CEM): > 100 µM (inactive) | GI50 (SF-268): > 100 µM (inactive) | GI50 (SK-MEL-5): > 100 µM (inactive) | GI50 (UO-31): > 100 µM (inactive) | GI50 (RPMI-8226): > 100 µM (inactive) | GI50 (SNB-19): > 100 µM (inactive) | GI50 (EKVX): > 100 µM (inactive) | GI50 (NCI/ADR-RES): > 100 µM (inactive) | GI50 (NCI-H460): > 100 µM (inactive) | GI50 (HOP-62): > 100 µM (inactive) | GI50 (MOLT-4): > 100 µM (inactive) | GI50 (SW-620): > 100 µM (inactive) | GI50 (SK-MEL-28): > 100 µM (inactive) | GI50 (SF-295): > 100 µM (inactive) | GI50 (A549): > 100 µM (inactive) | GI50 (HCT-116): > 100 µM (inactive) | GI50 (IGROV-1): > 100 µM (inactive) | GI50 (OVCAR-8): > 100 µM (inactive) | GI50 (COLO 205): > 100 µM (inactive)

CN(C)CCCNC(=O)N/N=C\c1cccc2ccccc12
GI50 (CCRF-CEM): > 10 µM (inactive) | GI50 (SF-268): > 10 µM (inactive) | GI50 (SK-MEL-5): > 10 µM (inactive) | GI50 (UO-31): 4.45 µM (inactive) | GI50 (RPMI-8226): > 10 µM (inactive) | GI50 (EKVX): > 10 µM (inactive) | GI50 (NCI/ADR-RES): > 10 µM (inactive) | GI50 (NCI-H460): > 10 µM (inactive) | GI50 (HOP-62): > 10 µM (inactive) | GI50 (MOLT-4): > 10 µM (inactive) | GI50 (SW-620): > 10 µM (inactive) | GI50 (SK-MEL-28): > 10 µM (inactive) | GI50 (SF-295): > 10 µM (inactive) | GI50 (A549): > 10 µM (inactive) | GI50 (HCT-116): > 10 µM (inactive) | GI50 (IGROV-1): > 10 µM (inactive) | GI50 (OVCAR-8): > 10 µM (inactive) | GI50 (COLO 205): > 10 µM (inactive) | GI50 (Malme-3M): > 10 µM (inactive)

CN(CCO)/N=N/c1[nH]cnc1C(N)=O
GI50 (CCRF-CEM): 21.5 µM (inactive) | GI50 (SF-268): 84.1 µM (inactive) | GI50 (SK-MEL-5): > 100 µM (inactive) | GI50 (RPMI-8226): > 100 µM (inactive) | GI50 (SNB-19): > 100 µM (inactive) | GI50 (EKVX): > 100 µM (inactive) | GI50 (NCI-H460): > 100 µM (inactive) | GI50 (HOP-62): 74 µM (inactive) | GI50 (MOLT-4): > 100 µM (inactive) | GI50 (SW-620): 69.3 µM (inactive) | GI50 (SK-MEL-28): > 100 µM (inactive) | GI50 (SF-295): 77.8 µM (inactive) | GI50 (A549): > 100 µM (inactive) | GI50 (HCT-116): 49.5 µM (inactive) | GI50 (IGROV-1): > 100 µM (inactive) | GI50 (OVCAR-8): 45.7 µM (inactive) | GI50 (COLO 205): > 100 µM (inactive) | GI50 (Malme-3M): 52.8 µM (inactive)

CN(C)CCNC(=O)c1cccc2c(=O)c3ccccc3oc12
GI50 (CCRF-CEM): 35.4 µM (inactive) | GI50 (SF-268): 45.2 µM (inactive) | GI50 (SK-MEL-5): 25.2 µM (inactive) | GI50 (UO-31): 18.1 µM (inactive) | GI50 (RPMI-8226): 29.2 µM (inactive) | GI50 (SNB-19): 36.9 µM (inactive) | GI50 (EKVX): > 66.1 µM (inactive) | GI50 (NCI/ADR-RES): 27.6 µM (inactive) | GI50 (NCI-H460): 28.2 µM (inactive) | GI50 (HOP-62): 38.5 µM (inactive) | GI50 (MOLT-4): 41.3 µM (inactive) | GI50 (SW-620): 34.4 µM (inactive) | GI50 (SK-MEL-28): 33.7 µM (inactive) | GI50 (SF-295): 30.3 µM (inactive) | GI50 (A549): 39 µM (inactive) | GI50 (HCT-116): 13.7 µM (inactive) | GI50 (IGROV-1): 40.6 µM (inactive) | GI50 (OVCAR-8): 27.7 µM (inactive) | GI50 (COLO 205): 13.1 µM (inactive) | GI50 (Malme-3M): 25 µM (inactive)

COc1cc(C2c3cc4c(cc3[C@@H](Nc3ccccc3)C3COC(=O)[C@H]23)OCO4)cc(OC)c1O (stereo partly drawn)
GI50 (CCRF-CEM): 0.0279 µM (active) | GI50 (SF-268): 1.04 µM (active) | GI50 (SK-MEL-5): 0.787 µM (active) | GI50 (UO-31): 0.531 µM (active) | GI50 (RPMI-8226): 0.234 µM (active) | GI50 (SNB-19): 0.34 µM (active) | GI50 (EKVX): 1.96 µM (inactive) | GI50 (NCI/ADR-RES): 2.07 µM (inactive) | GI50 (NCI-H460): < 0.01 µM (active) | GI50 (HOP-62): 0.155 µM (active) | GI50 (MOLT-4): < 0.01 µM (active) | GI50 (SW-620): 0.792 µM (active) | GI50 (SK-MEL-28): 2.72 µM (inactive) | GI50 (SF-295): 0.171 µM (active) | GI50 (A549): 0.0156 µM (active) | GI50 (HCT-116): 0.391 µM (active) | GI50 (IGROV-1): 2.21 µM (inactive) | GI50 (OVCAR-8): 1.18 µM (inactive) | GI50 (COLO 205): 1.92 µM (inactive) | GI50 (Malme-3M): 1.41 µM (inactive)
